Source: ChEMBL document CHEMBL5338754, “Identification of Binding Sites in the Nucleotide-Binding Domain of P-Glycoprotein for a Potent and Nontoxic Modulator, the Amine-Containing Monomeric Flavonoid FM04” (J Med Chem, 2023)

Key:
[1] = biological target: T1, ATP-dependent translocase ABCB1 (Homo sapiens, UniProt P08183); experiment: Negative allosteric modulator activity at human wildtype P-gp expressed in HEK293FT cells assessed as reversal of P-gp mediated PTX resistance by measuring sensitivity fold change incubated for 5 days by MTS assay; format: cell-based; conditions: 120 h, time 5 day
[2] = biological target: ATP-dependent translocase ABCB1 (Homo sapiens, UniProt P08183, Q1193A); experiment: Negative allosteric modulator activity at human P-gp Q1193A mutant expressed in HEK293FT cells assessed as reversal of P-gp mediated PTX resistance by measuring sensitivity fold change incubated for 5 days by MTS assay; format: cell-based; conditions: 120 h, time 5 day
[3] = biological target: ATP-dependent translocase ABCB1 (Homo sapiens, UniProt P08183, Q1193E); experiment: Negative allosteric modulator activity at human P-gp Q1193E mutant expressed in HEK293FT cells assessed as reversal of P-gp mediated PTX resistance by measuring sensitivity fold change incubated for 5 days by MTS assay; format: cell-based; conditions: 120 h, time 5 day
[4] = biological target: ATP-dependent translocase ABCB1 (Homo sapiens, UniProt P08183, G1114A); experiment: Negative allosteric modulator activity at human P-gp G1114A mutant expressed in HEK293FT cells assessed as increase in intracellular doxorubicin accumulation using doxorubicin as substrate at 1 uM incubated for 150 mins by microplate reader assay (reference value: 98.8 +/- 1.4 %); format: cell-based; conditions: 2.5 h
[5] = biological target: ATP-dependent translocase ABCB1 (Homo sapiens, UniProt P08183, H1195A); experiment: Negative allosteric modulator activity at human P-gp H1195A mutant expressed in HEK293FT cells assessed as increase in intracellular doxorubicin accumulation using doxorubicin as substrate at 1 uM incubated for 150 mins by microplate reader assay (reference value: 78.1 +/- 1.4 %); format: cell-based; conditions: 2.5 h
[6] = biological target: ATP-dependent translocase ABCB1 (Homo sapiens, UniProt P08183, T1226A); experiment: Negative allosteric modulator activity at human P-gp T1226A mutant expressed in HEK293FT cells assessed as increase in intracellular doxorubicin accumulation using doxorubicin as substrate at 1 uM incubated for 150 mins by microplate reader assay (reference value: 89 +/- 4 %); format: cell-based; conditions: 2.5 h
[7] = biological target: ATP-dependent translocase ABCB1 (Homo sapiens, UniProt P08183, C1227A); experiment: Negative allosteric modulator activity at human P-gp C1227A mutant expressed in HEK293FT cells assessed as increase in intracellular doxorubicin accumulation using doxorubicin as substrate at 1 uM incubated for 150 mins by microplate reader assay (reference value: 33.3 +/- 1.3 %); format: cell-based; conditions: 2.5 h
[8] = biological target: ATP-dependent translocase ABCB1 (Homo sapiens, UniProt P08183, Q1193N); experiment: Negative allosteric modulator activity at human P-gp Q1193N mutant expressed in HEK293FT cells assessed as increase in intracellular doxorubicin accumulation using doxorubicin as substrate at 1 uM incubated for 150 mins by microplate reader assay (reference value: 59.7 +/- 2.1 %); format: cell-based; conditions: 2.5 h
[9] = biological target: ATP-dependent translocase ABCB1 (Homo sapiens, UniProt P08183, G1114L); experiment: Negative allosteric modulator activity at human P-gp G1114L mutant expressed in HEK293FT cells assessed as increase in intracellular doxorubicin accumulation using doxorubicin as substrate at 1 uM incubated for 150 mins by microplate reader assay (reference value: 97.9 +/- 4.2 %); format: cell-based; conditions: 2.5 h
[10] = biological target: T2, ATP-dependent translocase ABCB1 (Homo sapiens, UniProt P08183, I1115F); experiment: Negative allosteric modulator activity at human P-gp I1115F mutant expressed in HEK293FT cells assessed as increase in intracellular doxorubicin accumulation using doxorubicin as substrate at 1 uM incubated for 150 mins by microplate reader assay (reference value: 65.5 +/- 0.9 %); format: cell-based; conditions: 2.5 h
[11] = biological target: T3, ATP-dependent translocase ABCB1 (Homo sapiens, UniProt P08183, T1226Y); experiment: Negative allosteric modulator activity at human P-gp T1226Y mutant expressed in HEK293FT cells assessed as increase in intracellular doxorubicin accumulation using doxorubicin as substrate at 1 uM incubated for 150 mins by microplate reader assay (reference value: 67.4 +/- 2 %); format: cell-based; conditions: 2.5 h
[12] = biological target: ATP-dependent translocase ABCB1 (Homo sapiens, UniProt P08183, Q1193F); experiment: Negative allosteric modulator activity at human P-gp Q1193F mutant expressed in HEK293FT cells assessed as fold change in intracellular doxorubicin accumulation using doxorubicin as substrate at 1 uM incubated for 150 mins by microplate reader assay relative to DMSO; format: cell-based; conditions: 2.5 h
[13] = biological target: ATP-dependent translocase ABCB1 (Homo sapiens, UniProt P08183, I1115N); experiment: Negative allosteric modulator activity at human P-gp I1115N mutant expressed in HEK293FT cells assessed as fold change in intracellular doxorubicin accumulation using doxorubicin as substrate at 1 uM incubated for 150 mins by microplate reader assay relative to DMSO; format: cell-based; conditions: 2.5 h
[14] = biological target: T2, ATP-dependent translocase ABCB1; experiment: Negative allosteric modulator activity at human P-gp I1115F mutant expressed in HEK293FT cells assessed as fold change in intracellular doxorubicin accumulation using doxorubicin as substrate at 1 uM incubated for 150 mins by microplate reader assay relative to DMSO; format: cell-based; conditions: 2.5 h
[15] = biological target: T3, ATP-dependent translocase ABCB1; experiment: Negative allosteric modulator activity at human P-gp T1226Y mutant expressed in HEK293FT cells assessed as fold change in intracellular doxorubicin accumulation using doxorubicin as substrate at 1 uM incubated for 150 mins by microplate reader assay relative to DMSO; format: cell-based; conditions: 2.5 h
[16] = biological target: T2, ATP-dependent translocase ABCB1; experiment: Activation of P-gp ATPase activity in human P-gp I1115F mutant expressed in HEK293FT cell microsomes at 20 uM incubated for 1 hr in presence of ATP by Glo-luminescence based microplate reader assay (reference value: 0.21 +/- 0.05 pmol/min/microg); set-up: species or system Microsome
[17] = biological target: T1, ATP-dependent translocase ABCB1; experiment: Activation of P-gp ATPase activity in wildtype human P-gp expressed in HEK293FT cell microsomes at 20 uM incubated for 1 hr in presence of ATP by Glo-luminescence based microplate reader assay (reference value: 0.32 +/- 0.02 pmol/min/microg); set-up: species or system Microsome
[18] = biological target: ATP-dependent translocase ABCB1 (Homo sapiens, UniProt P08183, Q1193C); experiment: Activation of P-gp ATPase activity in human P-gp Q1193C mutant expressed in HEK293FT cell microsomes assessed as fold change of ATPase activity at 20 uM incubated for 1 hr in presence of ATP by Glo-luminescence based microplate reader assay relative to DMSO; set-up: species or system Microsome
[19] = biological target: P-gp (ABCB1) I1115F mutant (Homo sapiens, UniProt P08183, I1115F); experiment: Activation of P-gp ATPase activity in human P-gp I1115F mutant expressed in HEK293FT cell microsomes assessed as fold change of ATPase activity at 20 uM incubated for 1 hr in presence of ATP by Glo-luminescence based microplate reader assay relative to DMSO; set-up: species or system Microsome; conditions: read-out: FC
P-gp (ABCB1) wildtype = P-gp (ABCB1) wildtype (Homo sapiens, UniProt P08183); experiment: Activation of P-gp ATPase activity in wildtype human P-gp expressed in HEK293FT cell microsomes assessed as fold change of ATPase activity at 20 uM incubated for 1 hr in presence of ATP by Glo-luminescence based microplate reader assay relative to DMSO; set-up: species or system Microsome; conditions: microsomes of HEK293FT cells expressing wildtype human P-gp, read-out: FC

T2 sequence (P08183 whole entry I1115F): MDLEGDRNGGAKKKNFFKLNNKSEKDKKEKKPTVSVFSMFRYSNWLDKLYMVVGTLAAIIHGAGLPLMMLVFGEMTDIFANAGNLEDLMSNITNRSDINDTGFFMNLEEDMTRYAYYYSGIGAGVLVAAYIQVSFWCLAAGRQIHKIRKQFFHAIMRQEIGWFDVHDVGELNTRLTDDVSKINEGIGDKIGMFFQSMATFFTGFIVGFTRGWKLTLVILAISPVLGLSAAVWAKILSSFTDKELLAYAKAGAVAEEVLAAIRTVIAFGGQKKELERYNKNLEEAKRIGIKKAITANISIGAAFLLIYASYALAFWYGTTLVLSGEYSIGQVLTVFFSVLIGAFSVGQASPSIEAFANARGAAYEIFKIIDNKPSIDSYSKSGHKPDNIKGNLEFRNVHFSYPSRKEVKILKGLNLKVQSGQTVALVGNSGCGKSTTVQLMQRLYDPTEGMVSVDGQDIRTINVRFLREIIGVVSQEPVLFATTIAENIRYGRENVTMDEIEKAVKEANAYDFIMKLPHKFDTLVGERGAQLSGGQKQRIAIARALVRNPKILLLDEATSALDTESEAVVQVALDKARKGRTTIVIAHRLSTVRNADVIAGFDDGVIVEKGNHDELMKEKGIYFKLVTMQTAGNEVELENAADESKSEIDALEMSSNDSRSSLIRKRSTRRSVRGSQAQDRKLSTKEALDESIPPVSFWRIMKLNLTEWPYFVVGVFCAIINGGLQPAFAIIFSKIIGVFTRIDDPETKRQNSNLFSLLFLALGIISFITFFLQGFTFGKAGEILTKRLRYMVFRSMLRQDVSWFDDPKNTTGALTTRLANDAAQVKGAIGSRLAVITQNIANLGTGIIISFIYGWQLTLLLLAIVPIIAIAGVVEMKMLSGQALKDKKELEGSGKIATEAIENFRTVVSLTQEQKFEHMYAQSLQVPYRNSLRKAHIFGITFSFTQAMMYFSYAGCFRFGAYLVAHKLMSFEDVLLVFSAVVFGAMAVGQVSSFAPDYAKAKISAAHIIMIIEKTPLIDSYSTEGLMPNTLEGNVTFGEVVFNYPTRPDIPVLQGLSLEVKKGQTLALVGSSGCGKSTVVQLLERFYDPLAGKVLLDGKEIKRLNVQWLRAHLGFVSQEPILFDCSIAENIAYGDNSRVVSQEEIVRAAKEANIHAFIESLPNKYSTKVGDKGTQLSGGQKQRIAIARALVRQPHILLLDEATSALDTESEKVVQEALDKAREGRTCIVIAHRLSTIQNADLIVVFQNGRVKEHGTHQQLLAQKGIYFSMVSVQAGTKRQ
T1 sequence (P08183 whole entry): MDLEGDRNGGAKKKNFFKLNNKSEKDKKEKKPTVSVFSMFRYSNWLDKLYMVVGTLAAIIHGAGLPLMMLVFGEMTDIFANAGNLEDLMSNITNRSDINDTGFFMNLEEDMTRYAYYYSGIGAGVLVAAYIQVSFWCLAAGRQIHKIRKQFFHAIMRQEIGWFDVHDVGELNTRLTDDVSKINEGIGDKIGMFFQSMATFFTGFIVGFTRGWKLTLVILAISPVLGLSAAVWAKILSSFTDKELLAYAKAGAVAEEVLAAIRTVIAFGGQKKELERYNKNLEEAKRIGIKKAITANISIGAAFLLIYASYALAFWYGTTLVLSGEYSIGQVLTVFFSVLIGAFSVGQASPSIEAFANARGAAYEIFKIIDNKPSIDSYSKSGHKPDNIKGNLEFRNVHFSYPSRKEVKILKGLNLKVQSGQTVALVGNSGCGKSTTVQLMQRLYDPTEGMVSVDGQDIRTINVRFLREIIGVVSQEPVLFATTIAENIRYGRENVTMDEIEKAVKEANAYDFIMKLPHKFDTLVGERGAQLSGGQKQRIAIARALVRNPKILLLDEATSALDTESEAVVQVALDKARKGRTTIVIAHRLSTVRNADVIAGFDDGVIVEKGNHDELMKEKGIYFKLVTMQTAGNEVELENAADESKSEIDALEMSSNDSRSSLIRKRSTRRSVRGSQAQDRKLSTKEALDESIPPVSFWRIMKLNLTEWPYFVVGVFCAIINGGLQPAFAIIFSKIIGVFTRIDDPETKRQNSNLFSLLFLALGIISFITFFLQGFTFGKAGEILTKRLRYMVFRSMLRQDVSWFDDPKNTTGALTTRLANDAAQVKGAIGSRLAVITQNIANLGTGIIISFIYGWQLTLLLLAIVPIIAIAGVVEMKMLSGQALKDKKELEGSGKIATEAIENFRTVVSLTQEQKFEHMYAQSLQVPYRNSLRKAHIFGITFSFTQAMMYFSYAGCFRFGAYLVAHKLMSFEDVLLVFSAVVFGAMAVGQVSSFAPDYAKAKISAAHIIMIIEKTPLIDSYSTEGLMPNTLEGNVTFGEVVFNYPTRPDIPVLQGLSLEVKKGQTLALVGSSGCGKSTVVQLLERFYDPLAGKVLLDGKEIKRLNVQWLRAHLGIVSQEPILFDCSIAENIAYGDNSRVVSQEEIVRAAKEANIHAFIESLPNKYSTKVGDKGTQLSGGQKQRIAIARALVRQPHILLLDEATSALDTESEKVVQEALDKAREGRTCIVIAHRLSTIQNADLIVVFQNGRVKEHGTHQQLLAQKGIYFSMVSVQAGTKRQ
T3 sequence (P08183 whole entry T1226Y): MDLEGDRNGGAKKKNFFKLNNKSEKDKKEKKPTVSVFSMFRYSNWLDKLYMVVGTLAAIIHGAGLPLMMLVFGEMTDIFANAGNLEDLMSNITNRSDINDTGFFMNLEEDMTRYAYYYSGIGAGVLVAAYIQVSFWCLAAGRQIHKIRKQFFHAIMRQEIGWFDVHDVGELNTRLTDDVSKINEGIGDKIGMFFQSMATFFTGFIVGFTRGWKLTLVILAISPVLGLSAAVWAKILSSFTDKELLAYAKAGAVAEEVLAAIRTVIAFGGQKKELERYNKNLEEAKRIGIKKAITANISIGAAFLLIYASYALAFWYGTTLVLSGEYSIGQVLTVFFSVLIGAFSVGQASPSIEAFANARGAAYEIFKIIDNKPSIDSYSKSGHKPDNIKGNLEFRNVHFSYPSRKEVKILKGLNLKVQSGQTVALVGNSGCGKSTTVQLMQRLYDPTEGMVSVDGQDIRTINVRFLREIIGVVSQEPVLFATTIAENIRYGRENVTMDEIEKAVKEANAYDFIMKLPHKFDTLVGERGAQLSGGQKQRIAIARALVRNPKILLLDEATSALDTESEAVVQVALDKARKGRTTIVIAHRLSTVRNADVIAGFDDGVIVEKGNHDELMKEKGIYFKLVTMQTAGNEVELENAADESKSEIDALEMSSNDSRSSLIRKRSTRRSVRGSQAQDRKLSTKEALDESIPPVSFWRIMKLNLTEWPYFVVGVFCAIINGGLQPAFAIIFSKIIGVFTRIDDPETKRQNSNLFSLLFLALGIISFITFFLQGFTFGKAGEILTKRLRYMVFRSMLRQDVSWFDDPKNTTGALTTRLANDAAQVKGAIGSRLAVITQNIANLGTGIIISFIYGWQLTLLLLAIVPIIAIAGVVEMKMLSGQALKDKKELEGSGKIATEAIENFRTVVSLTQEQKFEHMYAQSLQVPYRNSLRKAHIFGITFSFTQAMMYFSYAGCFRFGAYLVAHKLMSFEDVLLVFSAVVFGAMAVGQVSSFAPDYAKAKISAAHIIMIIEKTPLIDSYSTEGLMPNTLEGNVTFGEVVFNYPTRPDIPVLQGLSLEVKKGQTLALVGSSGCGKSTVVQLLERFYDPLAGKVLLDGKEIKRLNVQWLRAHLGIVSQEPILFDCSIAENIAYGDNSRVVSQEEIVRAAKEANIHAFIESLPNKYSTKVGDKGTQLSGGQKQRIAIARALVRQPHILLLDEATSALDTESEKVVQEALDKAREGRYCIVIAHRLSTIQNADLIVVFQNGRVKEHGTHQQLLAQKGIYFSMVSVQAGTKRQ
Chain of ATP-dependent translocase ABCB1 (Homo sapiens, UniProt P08183, Q1193A) (P08183 whole entry Q1193A): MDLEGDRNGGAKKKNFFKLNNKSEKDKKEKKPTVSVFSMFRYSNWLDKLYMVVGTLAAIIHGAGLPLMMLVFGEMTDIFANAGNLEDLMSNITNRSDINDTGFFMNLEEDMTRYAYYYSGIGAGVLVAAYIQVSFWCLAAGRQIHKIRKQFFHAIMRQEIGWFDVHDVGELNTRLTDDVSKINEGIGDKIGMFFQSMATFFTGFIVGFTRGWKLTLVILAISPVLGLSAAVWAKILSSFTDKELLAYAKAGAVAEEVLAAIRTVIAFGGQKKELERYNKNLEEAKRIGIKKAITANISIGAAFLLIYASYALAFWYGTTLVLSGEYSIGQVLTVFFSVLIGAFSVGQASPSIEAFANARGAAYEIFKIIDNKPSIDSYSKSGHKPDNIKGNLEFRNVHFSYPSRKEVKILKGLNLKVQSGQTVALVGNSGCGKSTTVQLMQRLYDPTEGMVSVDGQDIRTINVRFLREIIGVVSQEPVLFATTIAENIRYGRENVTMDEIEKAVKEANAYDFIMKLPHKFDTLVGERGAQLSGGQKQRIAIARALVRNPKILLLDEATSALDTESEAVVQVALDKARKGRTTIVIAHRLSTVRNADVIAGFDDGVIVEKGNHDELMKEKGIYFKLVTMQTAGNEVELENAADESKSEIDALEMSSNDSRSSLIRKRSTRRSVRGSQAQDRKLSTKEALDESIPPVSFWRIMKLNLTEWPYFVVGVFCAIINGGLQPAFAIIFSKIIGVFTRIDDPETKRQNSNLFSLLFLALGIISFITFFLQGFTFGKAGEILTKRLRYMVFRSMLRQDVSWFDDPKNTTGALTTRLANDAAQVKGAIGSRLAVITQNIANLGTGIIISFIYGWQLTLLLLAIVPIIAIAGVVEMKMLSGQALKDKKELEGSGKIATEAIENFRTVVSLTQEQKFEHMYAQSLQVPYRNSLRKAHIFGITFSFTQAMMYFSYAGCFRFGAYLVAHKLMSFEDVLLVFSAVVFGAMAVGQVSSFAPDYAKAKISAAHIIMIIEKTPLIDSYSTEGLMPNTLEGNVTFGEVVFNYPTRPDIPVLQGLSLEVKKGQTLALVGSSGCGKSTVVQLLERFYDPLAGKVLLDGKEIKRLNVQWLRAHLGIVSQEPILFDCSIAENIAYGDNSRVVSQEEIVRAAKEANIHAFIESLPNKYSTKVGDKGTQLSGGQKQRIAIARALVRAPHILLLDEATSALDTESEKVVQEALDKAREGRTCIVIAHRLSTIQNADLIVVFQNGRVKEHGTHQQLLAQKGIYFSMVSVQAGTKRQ

fold change (FC) [1]: 73 | fold change (FC) [2]: 4.3 | fold change (FC) [3]: 4.3 | Activity [4]: 93.5% | Activity [5]: 83.9% | Activity [6]: 85.8% | Activity [7]: 43.8% | Activity [8]: 91.9% | Activity [9]: 95% | Activity [10]: 83.8% | Activity [11]: 104% | fold change (FC) [12]: 1.2 | fold change (FC) [13]: 1 | fold change (FC) [14]: 1.3 | fold change (FC) [15]: 1.5 | Activity [16]: 0.25 pmol/min/µg | Activity [17]: 0.52 pmol/min/µg | fold change (FC) [18]: 1.3 | fold induction at 1 h, 20 µM [19]: 1.2 | fold induction at 1 h, 20 µM (P-gp (ABCB1) wildtype): 1.6
Compound: O=c1cc(-c2ccc(OCCOCCNCc3ccccc3)cc2)oc2ccccc12
